Laboratory results reported in patent publication US20110178016A1, “PULSE PARATHYROID HORMONE FOR TREATMENT OF THE HEM[…], STROMAL CELL LOSS, AND VASCULAR INJURY RESULTING FROM ACUTE EXPOSURE TO LETHAL RADIATION” (priority 2008, published 2011).
Entries after “also recorded” stand apart in the source; their conditions may differ.

Tests used:
[1] = system: macaque monkeys following chemo-ablative therapy and MHC mis-matched allogeneic stem cell transplant; assay: Daily PTH after chemo-ablative conditioning and MHC mismatched allogeneic stem cell transplant; type: in vivo
From the text: A previously unrecognized role for PTH on mitigation of myelosuppression in macaque monkeys is described. Following chemo-ablative therapy and MHC mis-matched allogeneic stem cell transplant, animals were randomized to daily PTH treatment (5 mcg/kg/day subcutaneously) or placebo. […] Following myeloablation, PTH may act to increase megakaryopoiesis through increased production of HSC.
(§1) Bone marrow transplant studies by Calvi and colleagues characterized this process in the syngeneic mouse model of osteoblastic activation. To see if PTH could enhance allogeneic stem cell engraftment in nonhuman primates (monkeys), donors were MHC mismatched based on recipient proliferation against donor cells in the mixed lymphocyte culture and by disparity at the class I antigen, Bw6. This disparity permitted tracking of Bw6+ donor cells following transplantation into Bw6-recipients. Eight control recipients were conditioned with thymoglobulin, rituxan, fludarabine, and melphalan. Six animals received the conditioning regimen supplemented with parathyroid hormone beginning on the first day of the conditioning regimen and administered daily at a dose of 5 micrograms/kg subcutaneously. An allogeneic stem cell transplant consisting of 2−4×10^6 CD34+cells/kg was administered on day 0. Outcome measures included PTH levels, CBCs, and donor engraftment via flow cytometry.

[2] = PTH levels after subcutaneous administration in transplanted monkeys; type: in vivo, nonhuman primates (monkeys); details: 5 micrograms/kg subcutaneously
From the text: as §1

[3] = system: bone marrow colony forming units / hematopoietic stem cells; assay: Bone marrow colony forming units and hematopoietic stem cell content in irradiated mice; type: in vivo, B6 mice; details: 772 cGy
Experimental: In a second experiment, a sub-group of animals were euthanized on day 7, n=3 per cohort. Bone marrows were flushed and CFUs were performed.
B6 mice underwent 772 cGy irradiation and a daily total dose of 400 mcg/kg/day of PTH.
One group of animals was euthanized on day 3 (n=3) one group on day 7 (n=4) and one group (n=3) on day 28.
Bone marrow was analyzed for colony forming units (CFU) (FIGS. 9A and 9B), hematopoietic stem cell content. Serum was analyzed for PTH levels on the final day of the study to determine the duration of detectable PTH in the serum following the final dose.
Mice underwent exposure to 772 cGy radiation and were randomized to treatment of daily PTH 400 mcg/kg or saline. On days 3 (n=3) and 7 (n=4) bone marrow was analyzed for colony forming units.
Following irradiation with 772 cGy, mice underwent bone marrow analysis on days 3 (n=3) or 7 (n=4) for hematopoietic stem cell content. […] (FIG. 11)

[4] = system: bone marrow colony forming units / CD34+ hematopoietic stem cells; assay: Bone marrow CFU and CD34+ cells in non-irradiated monkeys 24 hours after first PTH dose; type: in vivo, cynomolgus monkeys; details: non-irradiated CYNOs
Experimental: (§2) Two cynomolgus monkeys (hereafter referred to as CYNOs) were treated with a 21 day course of daily subcutaneous PTH at either 100 mcg/kg (monkey 7801) or 50 mcg/kg (monkey 7872). Hematopoietic outcome measures included:
(a) bone marrow analysis for colony forming units 24 hours after first dose of PTH;
(b) bone marrow analysis for CD34+ hematopoietic stem cells 24 hours after first dose of PTH;

cynomolgus monkeys = assay: Toxicity studies of a 21 day course of PTH in monkeys (cardiac monitoring, serum calcium, kidney MRI); type: in vivo
Experimental: as §2
(d) MRI of the kidneys upon completion of the 21 day course.
Three cynomolgus monkeys (hereafter referred to as CYNOs) were treated with a 21 day course of daily subcutaneous PTH at either 50 ug/kg (7872), 100 ug/kg (7801), or 250 ug/kg (7876).
Two were irradiated (7801 and 7875) at a lethal dose of 682 cGy and administered 100 ug/kg. Of note, 7801 underwent a washout period prior to undergoing irradiation and subsequent PTH therapy
Outcome measures included:
(a) continuous cardiac monitoring and serum calcium
(e) MRI of the kidneys upon completion of the 21 day course.

rat = details: prolonged daily dosing, 4 months-2 years; cited from earlier work
monkeys = details: prolonged daily dosing, 4 months-2 years; cited from earlier work
[5] = macaques, PTH 5 mcg/kg/day sc, statistical significance by 4 weeks
[6] = CYNOs, 21 day course, 100 mcg/kg or 50 mcg/kg
[7] = highest dose, 250 ug/kg, administered for 21 days

CC[C@H](C)[C@H](NC(=O)[C@H](CCC(=O)O)NC(=O)[C@H](CO)NC(=O)[C@@H](NC(=O)[C@@H](N)CO)C(C)C)C(=O)N[C@@H](CCC(N)=O)C(=O)N[C@@H](CC(C)C)C(=O)N[C@@H](CCSC)C(=O)N[C@@H](Cc1cnc[nH]1)C(=O)N[C@@H](CC(N)=O)C(=O)N[C@@H](CC(C)C)C(=O)NCC(=O)N[C@@H](CCCCN)C(=O)N[C@@H](Cc1cnc[nH]1)C(=O)N[C@@H](CC(C)C)C(=O)N[C@@H](CC(N)=O)C(=O)N[C@@H](CO)C(=O)N[C@@H](CCSC)C(=O)N[C@@H](CCC(=O)O)C(=O)N[C@@H](CCCN=C(N)N)C(=O)N[C@H](C(=O)N[C@@H](CCC(=O)O)C(=O)N[C@@H](Cc1c[nH]c2ccccc12)C(=O)N[C@@H](CC(C)C)C(=O)N[C@@H](CCCN=C(N)N)C(=O)N[C@@H](CCCCN)C(=O)N[C@@H](CCCCN)C(=O)N[C@@H](CC(C)C)C(=O)N[C@@H](CCC(N)=O)C(=O)N[C@@H](CC(=O)O)C(=O)N[C@H](C(=O)N[C@@H](Cc1cnc[nH]1)C(=O)N[C@@H](CC(N)=O)C(=O)N[C@@H](Cc1ccccc1)C(=O)O)C(C)C)C(C)C [PTH, Teriparatide]
hemoglobin (serial CBCs) ([1]; PTH group vs control group): no significant difference
engrafting donor B cells ([1]; macaques, PTH 5 mcg/kg/day sc): significantly increased
host (recipient) T cells ([1]; macaques, PTH 5 mcg/kg/day sc): no significant increase; also recorded: little or no effect
host or donor myeloid lineage CD14 or CD11b+ cells ([1]; macaques, PTH 5 mcg/kg/day sc): no significant increase
engrafting donor T cells (CD4 and CD8 subsets) ([1]; macaques, PTH 5 mcg/kg/day sc vs control): significant increases; also recorded: significantly increased; also recorded: increased over control animals
engrafting donor CD34+ cells [1, 5]: significantly increased; also recorded: significant increases
host CD34+ stem cells [1, 5]: significantly increased; also recorded: significant increases
platelet counts in peripheral blood ([1]; macaques, PTH 5 mcg/kg/day subcutaneously vs untreated controls, first observed 7 days after PTH therapy): statistically significant increase; also recorded: increased levels of platelets
recipient granulocytes or natural killer cells ([1]; macaques, PTH 5 micrograms/kg sc daily): No effect
iliac crest bone biopsy findings after vs before PTH treatment ([1]; monkeys 7150 and 7154, 5 weeks after PTH treatment): increased cortical bone, increased osteoblasts, and loss of adiposity; also recorded: adiposity was reduced, and cortical bone formation increased
time by which PTH levels were undetectable [2]: ≤ 4 h
Tmax ([2]; monkey, in vivo, sc, read-out: time of peak PTH levels after administration (converted)): 30 min
CFU capabilities of bone marrow ([3]; PTH 400 mcg/kg/day x 7 days, euthanized on day 7, n=3 per cohort, compared to other groups): greatest preservation of CFU capabilities; also recorded: preserves CFU
CFU-GM and CFU-M in bone marrow ([3]; daily PTH 400 mcg/kg vs saline, days 3 and 7): increased with PTH therapy
bone marrow hematopoietic stem cell content, treatment vs control ([3]; daily PTH 400 mcg/kg, day 3): no statistical significance
increase in bone marrow stem cell content ([3]; daily PTH 400 mcg/kg, day 7): 5 fold
BFU and CFU-GEMM in bone marrow ([3]; daily PTH 400 mcg/kg, trend more pronounced on day 7): increased with PTH treatment
CFU-GM and CFU-M in bone marrow aspirates ([4]; 50 or 100 mcg/kg, 24 hours after first dose, more pronounced with higher dose): increases
Erythroid, megakaryocyte lineages (BFU, CFU-GEMM) in bone marrow aspirate ([4]; 50 or 100 mcg/kg, after first dose): increase
bone marrow analysis, all lineages, by PTH dose ([4]; 50 vs 100 mcg/kg): dose response
percent of CD34+ hematopoietic stem cells vs pre-treatment levels ([4]; 24 hours after first dose): increases
tolerability (cynomolgus monkeys; 250 ug/kg up to 19 days, non-irradiated cynomolgus monkey): well tolerated
Cardiac monitoring (cynomolgus monkeys; [6]): some shortening of the Qt segment but no life threatening arrythmias
serum calcium peak (cynomolgus monkeys; [6]): ≤ 11.5 mg/dL
time for serum calcium to return to normal range after dosing (cynomolgus monkeys; [6]): 6 to 10 h
T wave height and ST-intervals over time (cynomolgus monkeys; [7]): some decrease
arrhythmias (cynomolgus monkeys; [7]): No life-threatening arrhythmias
tolerance in toxicity studies (cynomolgus monkeys; irradiated and non-irradiated monkeys, doses comparable to doses to ameliorate radiation damage): tolerated
serum calcium levels (cynomolgus monkeys; irradiated monkeys 7875 and 7801, 100 ug/kg, exception day 19 for 7801): normal calcium levels except one timepoint
BUN or creatinine (cynomolgus monkeys; monkeys 7801 (100 mcg/kg) and 7872 (50 mcg/kg), 21 day course): No change
MRI examination of the kidneys (cynomolgus monkeys; monkeys 7801 (100 mcg/kg) and 7872 (50 mcg/kg), after 21 day course): no cystic degeneration or tumors
serum calcium level (cynomolgus monkeys; non-irradiated animal 7876, 250 ug/kg, 21st day of dosing, with some somnolent behavior): 17 mg/dL
toxicity during the first 20 days of dosing (cynomolgus monkeys; three non-irradiated cynomolgus monkeys, 50, 100, 250 ug/kg, calcium slightly elevated): did not experience toxicity
doses at which toxicity was observed (rat): exceeding 75 mcg/kg
doses at which toxicity was observed (monkeys): > 0.04 mg/kg
